Reference: patent publication US11999727B2 (Tango Therapeutics, Inc., priority 2020, dated 2024)

Assays:
PRMT5 [1] = target: T1, PRMT5 (Homo sapiens, UniProt O14744); assay: PRMT5 biochemical IC50 assay with MTA as cofactor; conditions: PRMT5, MTA as cofactor; read-out: MTA IC50
T1 construct: purchased Viva (custom protein)

[2] = tested on: HAP1 MTAP-intact cell line; assay: SDMA in-cell western assay, HAP1 MTAP-intact; format: cell-based; conditions: Homo sapiens, HAP1, SDMA in-cell western, HAP1 MTAP-intact; read-out: MTAP HAP1 intact IC50
In short: (§1)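 Compounds were tested in HAP1 cells differing only in MTAP status (endogenous expression versus null). Cellular SDMA levels were then measured by in-cell western, giving an IC50 in each background.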

[3] = tested on: HAP1 MTAP-deleted cell line; assay: SDMA in-cell western assay, HAP1 MTAP-deleted; format: cell-based; conditions: for IC50: Homo sapiens, HAP1, SDMA in-cell western, HAP1 MTAP-deleted; for MTAP intact/deleted ratio: SDMA in-cell western
In short: as §1

[4] = tested on: HAP1 MTAP-deleted cell line; assay: Viability assay, MTAP-deleted cell line; format: cell-based; conditions: Homo sapiens, read-out: HAP1 MTAP deleted viability
Source text: Table 1 additionally indicates IC50 values in a viability assay for the MTAP-deleted cell line (column 10), indicating the effect of treatment with compound on cell survival.

PRMT5 [5] = target: T1, PRMT5; assay: PRMT5 biochemical IC50 assay with no cofactor; conditions: PRMT5, no cofactor
Source text: Table 1 indicates IC50 values (μM) against PRMT5 for exemplary compounds in the presence of SAM as cofactor, with no cofactor, and with MTA as cofactor, respectively (columns 4-6). […] Ki values can be calculated from the IC50 values as described in the Examples section. As detailed in the Examples section, for the assay performed in the presence of SAM, IC50=Ki×1.5 (Ki=IC50/1.5).

PRMT5 [6] = target: T1, PRMT5; assay: PRMT5 biochemical IC50 assay with SAM as cofactor; conditions: PRMT5, SAM as cofactor; read-out: SAM IC50
[7] = read-out: HAP1 MTAP deleted IC50
[8] = HAP1, viability assay, MTAP-deleted cell line
[9] = IC50 ratio HAP1 MTAP-intact / HAP1 MTAP-deleted
[10] = HAP1, viability assay, HAP1 MTAP-deleted
[11] = read-out: HAP 1 MTAP deleted IC50
[12] = HAP1, viability IC50, MTAP-deleted cell line
[13] = read-out: No Cofactor/ rel IC50

T1 sequence (O14744 whole entry): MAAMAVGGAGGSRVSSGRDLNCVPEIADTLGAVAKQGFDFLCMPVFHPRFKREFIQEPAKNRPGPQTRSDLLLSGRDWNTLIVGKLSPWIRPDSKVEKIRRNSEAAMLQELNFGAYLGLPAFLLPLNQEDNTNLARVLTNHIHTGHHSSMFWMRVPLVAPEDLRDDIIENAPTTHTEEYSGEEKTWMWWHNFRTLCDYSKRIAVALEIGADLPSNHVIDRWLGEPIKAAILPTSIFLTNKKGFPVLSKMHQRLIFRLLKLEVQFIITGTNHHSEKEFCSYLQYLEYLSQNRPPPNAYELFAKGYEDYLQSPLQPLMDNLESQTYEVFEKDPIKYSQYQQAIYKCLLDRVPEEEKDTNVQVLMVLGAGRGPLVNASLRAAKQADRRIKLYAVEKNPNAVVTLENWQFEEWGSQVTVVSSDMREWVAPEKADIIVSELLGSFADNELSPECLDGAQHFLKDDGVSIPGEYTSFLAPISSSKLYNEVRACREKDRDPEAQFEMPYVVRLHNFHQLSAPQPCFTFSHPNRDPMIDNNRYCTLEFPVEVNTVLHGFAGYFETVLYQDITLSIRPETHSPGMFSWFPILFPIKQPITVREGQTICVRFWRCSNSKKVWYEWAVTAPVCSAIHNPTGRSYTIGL
T1 sequence (Q9BQA1 whole entry partner): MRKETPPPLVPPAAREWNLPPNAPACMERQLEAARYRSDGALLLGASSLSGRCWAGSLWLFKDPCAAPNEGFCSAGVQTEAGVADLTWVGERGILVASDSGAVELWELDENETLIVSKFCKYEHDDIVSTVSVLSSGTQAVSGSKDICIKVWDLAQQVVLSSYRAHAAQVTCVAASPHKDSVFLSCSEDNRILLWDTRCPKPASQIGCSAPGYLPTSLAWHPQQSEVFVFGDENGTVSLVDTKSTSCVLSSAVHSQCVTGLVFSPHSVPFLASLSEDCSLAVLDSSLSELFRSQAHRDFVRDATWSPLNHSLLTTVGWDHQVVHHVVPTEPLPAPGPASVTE

IC50 (PRMT5 [1]) [nM] | IC50 [2] [nM] | IC50 [3, 7] [nM] | IC50 (PRMT5 [5]; read-out: No Cofactor/rel IC50) [nM] | IC50 (PRMT5 [6]) [nM] | IC50 [3, 11] [nM] | IC50 (PRMT5 [5]; [13]) [nM] | SMILES | MTAP intact/deleted ratio ([3]; IC50 ratio HAP1 MTAP-intact vs HAP1 MTAP-deleted) | IC50 [4, 8] [nM] | MTAP intact/deleted ratio [3, 9] | IC50 [4, 10] [nM] | IC50 [4, 12] [nM] | IC50 ([4]; HAP1, viability, HAP1 MTAP-deleted cell line) [nM]
50 to 500 | 100 to 1000 | < 100 | 50 to 500 | 50 to 500 |  |  | CCc1cc(NC(=O)C(=O)N2C[C@@H](C)[C@@H](OC(C)C)C[C@@H]2c2ccc3scnc3c2)cnc1N (racemic) [Compound 1094, N-(6-Amino-5-ethyl-3-pyridyl)-2-[(2S,4R,5S)-2-(1,3-benzothiazol-5-yl)-4-isopropoxy-5-methyl-1-piperidyl]-2-oxo-acetamide] | A (an IC50 ratio greater than or equal to 10 fold) | < 1000 |  |  |  | 
< 50 | 100 to 1000 | < 100 | < 50 | 50 to 500 |  |  | CCc1cc(NC(=O)C(=O)N2C[C@@H](C)CC[C@@H]2c2ccc(N)nc2)cnc1N (single isomer, unassigned) [Compound 851] |  |  | A (an IC50 ratio greater than or equal to 10 fold) | < 1000 |  | 
< 50 | 100 to 1000 |  | < 50 | < 50 | < 100 |  | C[C@H]1CC[C@H](c2ccc3sccc3c2)N(C(=O)C(=O)Nc2cncc(C(N)=O)c2)C1 (single isomer, unassigned) [Compound 585] |  |  | A (an IC50 ratio greater than or equal to 10 fold) |  | < 1000 | 
< 50 | > 1000 |  | 50 to 500 | 50 to 500 | < 100 |  | CC(C)c1cc([C@@H]2CC[C@@H](C)CN2C(=O)C(=O)Nc2cncc(C(N)=O)c2)ccc1O (racemic) [Compound 552, 5-[[2-[(2S,5R)-2-(4-Hydroxy-3-isopropyl-phenyl)-5-methyl-1-piperidyl]-2-oxo-acetyl]amino]pyridine-3-carboxamide] |  |  | A (an IC50 ratio greater than or equal to 10 fold) |  | < 1000 | 
< 50 | < 100 |  |  | < 50 | < 100 | < 50 | CCc1cc(NC(=O)C(=O)N2C[C@@H](C)CC[C@@H]2c2ccc3sc(C4CCN(C5CC5)CC4)nc3c2)cnc1N [Compound 1330, N-(6-amino-5-ethylpyridin-3-yl)-2-((2R,5S)-2-(2-(1-cyclopropylpiperidin-4-yl)benzo[d]thiazol-5-yl)-5-methylpiperidin-1-yl)-2-oxoacetamide] |  |  | A (an IC50 ratio greater than or equal to 10 fold) |  |  | < 1000
> 500 | > 1000 | > 1000 | > 500 | > 500 |  |  | C[C@H]1CC[C@H]([C@H]2CC[C@@H](O)CC2)N(C(=O)C(=O)Nc2cncc(C(N)=O)c2)C1 (single isomer, unassigned) [Compound 382] |  | > 10000 | C (an IC50 ratio of less than 3 fold) |  |  | 
50 to 500 | > 1000 | > 1000 | > 500 | > 500 |  |  | C[C@@H]1CC[C@@](C)(c2ccccc2)N(C(=O)C(=O)Nc2cncc(C(N)=O)c2)C1 (racemic) [Compound 521, 5-(2-(2,5-dimethyl-2-phenylpiperidin-1-yl)-2-oxoacetamido)nicotinamide] |  | > 10000 | B (an IC50 ratio greater than or equal to 3 fold but lower than 10 fold) |  |  | 
50 to 500 | > 1000 |  |  | 50 to 500 | > 1000 | 50 to 500 | Cc1cc(NC(=O)C(=O)N2C[C@H](C)CC[C@H]2C)cnc1N (racemic) [Compound 158, N-(6-amino-5-methyl-3-pyridyl)-2-[(2R,5R)-2,5-dimethyl-1-piperidyl]-2-oxo-acetamide] |  | > 10000 | C (an IC50 ratio of less than 3 fold) |  |  | 
> 500 | > 1000 | > 1000 | > 500 | > 500 |  |  | COc1ncc(NC(=O)C(=O)N2C[C@@H](C)CC[C@@H]2c2ccc3c(c2)CNC3=O)cc1C(N)=O (single isomer, unassigned) [Compound 750, 2-methoxy-5-(2-(5-methyl-2-(1-oxoisoindolin-5-yl)piperidin-1-yl)-2-oxoacetamido)nicotinamide] |  |  | C (an IC50 ratio of less than 3 fold) | > 10000 |  | 
> 500 | > 1000 | > 1000 | > 500 | > 500 |  |  | CNC(=O)c1ccc([C@@H]2CC[C@@H](C)CN2C(=O)C(=O)Nc2cnc(N)c(C)c2)s1 (single isomer, unassigned) [Compound 849] |  |  | C (an IC50 ratio of less than 3 fold) | > 10000 |  | 
> 500 | > 1000 |  | > 500 | > 500 | > 1000 |  | Cc1ccc([C@@H]2CC(F)(F)[C@@H](C)CN2C(=O)C(=O)Nc2cncc(C(N)=O)c2)cn1 (single isomer, unassigned) [Compound 946] |  | > 10000 | B (an IC50 ratio greater than or equal to 3 fold but lower than 10 fold) |  |  | 
< 50 | > 1000 | 100 to 1000 | 50 to 500 | 50 to 500 |  |  | C[C@H]1CC[C@H](c2ccc(F)c(F)c2)N(C(=O)C(=O)Nc2cncc(C(N)=O)c2)C1 (single isomer, unassigned) [Compound 475] |  | 1000 to 10000 | A (an IC50 ratio greater than or equal to 10 fold) |  |  | 
> 500 | > 1000 |  |  | > 500 | > 1000 | > 500 | Cc1cc(NC(=O)C(=O)N2CCCC[C@H]2C2CCCCC2)cnc1N (single isomer, unassigned) [Compound 34] |  | > 10000 | C (an IC50 ratio of less than 3 fold) |  |  | 
50 to 500 | > 1000 | 100 to 1000 | > 500 | 50 to 500 |  |  | NC(=O)c1cncc(NC(=O)C(=O)N2C[C@@H](CO)CC[C@@H]2c2ccccc2)c1 (racemic) [Compound 266, 5-(2-(5-(hydroxymethyl)-2-phenylpiperidin-1-yl)-2-oxoacetamido)nicotinamide] |  | > 10000 | A (an IC50 ratio greater than or equal to 10 fold) |  |  | 
< 50 | 100 to 1000 |  | < 50 | 50 to 500 | < 100 |  | Cc1cc(NC(=O)C(=O)N2C[C@@H](C)CC[C@@H]2c2ccc(-c3ccn[nH]3)cc2)cnc1N (single isomer, unassigned) [Compound 676] |  |  | B (an IC50 ratio greater than or equal to 3 fold but lower than 10 fold) |  | < 1000 | 
> 500 | > 1000 | > 1000 | > 500 | > 500 |  |  | C[C@@H]1CC[C@@H](c2ccc(F)c(Cl)c2)N(C(=O)C(=O)Nc2cncc(C(N)=O)c2)C1 (single isomer, unassigned) [Compound 513] |  | > 10000 | C (an IC50 ratio of less than 3 fold) |  |  | 
> 500 | > 1000 | > 1000 | > 500 | > 500 |  |  | C[C@@H]1CC[C@@H](c2cc(F)c(F)c(F)c2)N(C(=O)C(=O)Nc2cncc(C(N)=O)c2)C1 (single isomer, unassigned) [Compound 476] |  | > 10000 | C (an IC50 ratio of less than 3 fold) |  |  | 
